# Measured values as given in patent US8895610B1, “Platinum (IV) compounds targeting zinc finger domains” (priority 2007, dated 2014).
# Where “and” joins values, the source holds several entries; their conditions need not be identical. Equal entries are not always repeated. Entries after “also recorded” stand apart in the source; their conditions may differ.
# Legend:
# IL-13 = experiment: Feline blood serum immunofluorescent bead analysis: IL-13; type: in vivo, cat; conditions: cats BR, CF
# Protocol: (§1) Test sera samples from select felines were analyzed using the Rules-Based Medicine (Austin, Tex.) human multi-analyte for 90 measures from a single sample of less than 0.5 mL. The assay uses immunofluorescent beads to simultaneously measure antibody recognition to individually identifiable colored beads, each conjugated with a specific antibody, within a single well plate. Blood samples were drawn preceding (pretreatment) and following (post treatment) one-month FX101 treatment (from felines in Example 6), and are compared with two uninfected control felines. Human cross-reactive antibodies are commonly used for felines, and are relative rather than quantitative measures. Reductions in TNF-alpha and MMP-2 are evident in treated cats; TIMP-1 (Tissue Inhibitor of Metalloproteinases) is not associated with the downregulation of MMP-2. Both MMP-2 and MMP-9, as well as MCP-1, are considered important contributors to the penetration of virally-infected cells across the BBB (Webster, 2006). Additional comments follow the table.
# [1] = tested on: virions from HIV-1-transfected HeLa cells (pNL4-3); experiment: Electron micrographs of virions from HIV-1 transfected HeLa cells; type: cell-based, human; conditions: 10 and 20 uM; vs untreated control cells
# Protocol: Virions collected from HeLa cells 24 hours post-transfected with pNL4-3 HIV-1 were treated with or without FX101 for 2 hours, washed with phosphate-buffered saline, pelleted by ultracentrifugation, fixed with buffer containing 2% glutaraldehyde and 0.1M sodium cacodylate as described (Freed, 1994), and analyzed by electron microscopy. These images reveal comparative distortions of both viral core and corresponding membranes of viral progeny, consistent with published images of immature virion particles having a thick electron-dense outer shell and an electron-lucent center lacking a typical cone-shaped core, produced by nucleocapsid mutant virions (Tanchou, 1998). Mutational deletion of either or both zinc finger domains of the nucleocapsid protein also produces morphologically altered virions, reduces virion release and alters RNA packaging (Houzet, 2008). The failure of nucleocapsid protein proteins to chaperone viral RNA together with the failure to form the nucleocapsid membrane reflects two roles of nucleocapsid proteins involving zinc finger domains. Obstruction of virion assembly may create impotent virions while maintaining antigens for host humoral immune response as virus-like particles. […]
# [2] = tested on: HIV-1-transfected HeLa host cells (pNL4-3); experiment: Virus release in HIV-transfected HeLa cells (radiolabel, immunoprecipitation); type: cell-based, human; conditions: vs untreated transfected HeLa cells
# Source text: Briefly, HeLa cells were transfected (calcium phosphate method) with the full-length, infectious HIV-1 molecular clone pNL4-3 to examine single-cycle particle production (Freed, 1994). Transfected cells were metabolically radiolabeled, and cell- and virus-associated proteins were immunoprecipitated and quantified as previously described (Waheed and Freed, 2008). Virus release efficiency was reduced in a concentration-dependent manner with FX101 as compared with untreated controls.
# [3] = target: synthetic peptide F2, the carboxy-terminal zinc finger domain of HIV-1 (Human immunodeficiency virus type 1 group M subtype B, UniProt P12493); conditions: 100 pmole/microliter solutions, equal volumes; isotopic distribution of platinum at m/z~631
# Protocol: FIGS. 1A and 1B show Time of Flight (TOF) mass spectroscopy (MS) fragmentation pattern of the synthetic peptide F2, the carboxy-terminal zinc finger domain of HIV-1, bound to platinum. […] Equal volumes of F2 with FX101, F2 with ZnCO3, F2 with both FX101 and ZnCO3 were mixed, resulting in four total peptide solutions. Full TOF MS was acquired on the QSTAR at the Johns Hopkins Proteomics Core Facility with 1 uL of original sample diluted 1:10 in 50% methanol with 0.1% formic acid/water and 3 uL of this mixture loaded onto the 2 um New Objective tip and nano-sprayed using ion spray voltage of 1200 eV; mass calibration of Csl mixture was performed prior to sample injection. Mass range 590 kDa (50%) to 10500 kDa (50%) was collected for 1.0 minute.
# TIMP-1 = experiment: Feline blood serum immunofluorescent bead analysis: TIMP-1; type: in vivo, cat; conditions: cats BR, CF
# Protocol: as §1
# [4] = tested on: transfected HeLa and HEK-293 cells; experiment: Viral transcription or infectivity in transfected HeLa and HEK-293 cells; type: cell-based
# [5] = post treatment (one-month FX101 treatment)
compound,measurement,setting,value
"[NH2][Pt]([NH2])([Cl])([Cl])([Cl])[N+](=O)[O-] [FX101, nitrotrichlorodiamminoPt(IV)]","IL-13, relative blood serum measure",IL-13; [5],27 pg/mL and 34 pg/mL
same,"IL-13, relative blood serum measure",IL-13; pretreatment,15 pg/mL and 12 pg/mL
same,virion morphology (phenotype of virions produced),[1],immature virions; also recorded: nucleotide-defective and nucleotide-deficient virion particles with morphologically altered phenotypes
same,p24 Gag proteins,[2],greatly reduced
same,HIV-1 virus release efficiency,[2]; concentration-dependent,greatly reduced
same,direct binding of platinum to F2 peptide by TOF MS,[3],Pt-bound peptide
same,"TIMP-1, relative blood serum measure",TIMP-1; [5],9.0 ng/mL and 7.3 ng/mL
same,"TIMP-1, relative blood serum measure",TIMP-1; pretreatment,6.5 ng/mL and 9.8 ng/mL
same,direct inhibition of viral transcription or infectivity,[4],did not act as a direct inhibitor of viral transcription or infectivity
